Assay results taken from the CheMixHub viscosity set.

Assay: xn = mol fraction of the nth substance listed

c1ccccc1 + Cc1ccccc1
Conditions	viscosity [mPa·s]
293.15 K, 100 kPa, x2 = 0.25	0.631
293.15 K, 101 kPa, x1 = 0.28	0.584
293.15 K, 101 kPa, x1 = 0.54	0.597
293.15 K, 101 kPa, x1 = 0.78	0.607
293.15 K, 101.33 kPa, x1 = 0.1688	0.575
293.15 K, 101.33 kPa, x1 = 0.4383	0.592
293.15 K, 101.33 kPa, x1 = 0.5149	0.599
293.15 K, 101.33 kPa, x1 = 0.6583	0.606
293.15 K, 101.33 kPa, x1 = 0.7819	0.617
294.15 K, 100 kPa, x2 = 0.75	0.621
294.65 K, 101.33 kPa, x2 = 0.83	0.6216
294.75 K, 101.33 kPa, x2 = 0.202	0.6571
294.95 K, 101.33 kPa, x2 = 0.62	0.6245
295.55 K, 101.33 kPa, x2 = 0.508	0.6234
295.65 K, 101.33 kPa, x2 = 0.107	0.6473
295.85 K, 101.33 kPa, x2 = 0.272	0.6379
296.05 K, 101.33 kPa, x2 = 0.386	0.6282
297.35 K, 101.33 kPa, x2 = 0.719	0.6066
298.15 K, 101 kPa, x1 = 0.1	0.5546
298.15 K, 101 kPa, x1 = 0.1153	0.556
298.15 K, 101 kPa, x1 = 0.1272	0.555
298.15 K, 101 kPa, x1 = 0.2	0.5566
298.15 K, 101 kPa, x1 = 0.2022	0.5584
298.15 K, 101 kPa, x1 = 0.28	0.556
298.15 K, 101 kPa, x1 = 0.2965	0.5613
298.15 K, 101 kPa, x1 = 0.3	0.5595
298.15 K, 101 kPa, x1 = 0.3423	0.558
298.15 K, 101 kPa, x1 = 0.4	0.5632
298.15 K, 101 kPa, x1 = 0.4076	0.5651
298.15 K, 101 kPa, x1 = 0.5	0.5678
298.15 K, 101 kPa, x1 = 0.54	0.566
298.15 K, 101 kPa, x1 = 0.5405	0.5703
298.15 K, 101 kPa, x1 = 0.6	0.5732
298.15 K, 101 kPa, x1 = 0.7	0.5794
298.15 K, 101 kPa, x1 = 0.7024	0.579
298.15 K, 101 kPa, x1 = 0.7237	0.5802
298.15 K, 101 kPa, x1 = 0.78	0.574
298.15 K, 101 kPa, x1 = 0.8	0.5864
298.15 K, 101 kPa, x1 = 0.8593	0.5888
298.15 K, 101 kPa, x1 = 0.9	0.594
298.15 K, 101 kPa, x1 = 0.9275	0.594
298.15 K, 101 kPa, x1 = 0.9637	0.5968
298.15 K, 101.33 kPa, x1 = 0.0655	0.5543
298.15 K, 101.33 kPa, x1 = 0.0991	0.5554
298.15 K, 101.33 kPa, x1 = 0.2566	0.5591
298.15 K, 101.33 kPa, x1 = 0.3969	0.5652
298.15 K, 101.33 kPa, x1 = 0.5481	0.572
298.15 K, 101.33 kPa, x1 = 0.6618	0.5783
298.15 K, 101.33 kPa, x1 = 0.8029	0.5874
298.15 K, 101.33 kPa, x1 = 0.9087	0.5951
303.15 K, 101 kPa, x1 = 0.28	0.525
303.15 K, 101 kPa, x1 = 0.54	0.531
303.15 K, 101 kPa, x1 = 0.78	0.539
303.15 K, 101.3 kPa, x1 = 0.0529	0.5206
303.15 K, 101.3 kPa, x1 = 0.1185	0.522
303.15 K, 101.3 kPa, x1 = 0.2615	0.5257
303.15 K, 101.3 kPa, x1 = 0.3482	0.5277
303.15 K, 101.3 kPa, x1 = 0.4486	0.5312
303.15 K, 101.3 kPa, x1 = 0.5963	0.5372
303.15 K, 101.3 kPa, x1 = 0.7138	0.5426
303.15 K, 101.3 kPa, x1 = 0.8413	0.5482
303.15 K, 101.3 kPa, x1 = 0.9558	0.5538
303.15 K, 101.33 kPa, x1 = 0.1688	0.509
303.15 K, 101.33 kPa, x1 = 0.4383	0.523
303.15 K, 101.33 kPa, x1 = 0.5149	0.526
303.15 K, 101.33 kPa, x1 = 0.6583	0.529
303.15 K, 101.33 kPa, x1 = 0.7819	0.54
303.15 K, 101.33 kPa, x2 = 0.1	0.587
303.15 K, 101.33 kPa, x2 = 0.2	0.576
303.15 K, 101.33 kPa, x2 = 0.402	0.563
303.15 K, 101.33 kPa, x2 = 0.6	0.551
303.15 K, 101.33 kPa, x2 = 0.8	0.539
303.15 K, 101.33 kPa, x2 = 0.899	0.53
305.15 K, 101.33 kPa, x2 = 0.83	0.5517
305.35 K, 101.33 kPa, x2 = 0.508	0.5535
305.35 K, 101.33 kPa, x2 = 0.719	0.554
305.55 K, 101.33 kPa, x2 = 0.107	0.5782
305.55 K, 101.33 kPa, x2 = 0.62	0.5525
305.65 K, 101.33 kPa, x2 = 0.202	0.57
305.75 K, 101.33 kPa, x2 = 0.386	0.5579
308.15 K, 101 kPa, x1 = 0.54	0.502
308.15 K, 101 kPa, x1 = 0.78	0.506
308.15 K, 101.33 kPa, x2 = 0.1	0.564
308.15 K, 101.33 kPa, x2 = 0.2	0.556
308.15 K, 101.33 kPa, x2 = 0.402	0.541
308.15 K, 101.33 kPa, x2 = 0.6	0.532
308.15 K, 101.33 kPa, x2 = 0.8	0.518
308.15 K, 101.33 kPa, x2 = 0.899	0.507
312.85 K, 101.33 kPa, x2 = 0.107	0.5215
312.95 K, 101.33 kPa, x2 = 0.202	0.5201
312.95 K, 101.33 kPa, x2 = 0.272	0.5187
313.05 K, 101.33 kPa, x2 = 0.719	0.5077
313.15 K, 101 kPa, x1 = 0.28	0.472
313.15 K, 101 kPa, x1 = 0.54	0.476
313.15 K, 101 kPa, x1 = 0.78	0.48
313.15 K, 101.33 kPa, x1 = 0.1688	0.456
313.15 K, 101.33 kPa, x1 = 0.4383	0.463
313.15 K, 101.33 kPa, x1 = 0.6583	0.471
313.15 K, 101.33 kPa, x1 = 0.7819	0.479
313.15 K, 101.33 kPa, x2 = 0.1	0.55
313.15 K, 101.33 kPa, x2 = 0.2	0.529
313.15 K, 101.33 kPa, x2 = 0.402	0.517
313.15 K, 101.33 kPa, x2 = 0.6	0.505
313.15 K, 101.33 kPa, x2 = 0.8	0.491
313.15 K, 101.33 kPa, x2 = 0.899	0.483
313.25 K, 101.33 kPa, x2 = 0.386	0.51
313.35 K, 101.33 kPa, x2 = 0.508	0.5064
313.45 K, 101.33 kPa, x2 = 0.62	0.5057
313.45 K, 101.33 kPa, x2 = 0.83	0.5068
318.15 K, 101.33 kPa, x2 = 0.1	0.531
318.15 K, 101.33 kPa, x2 = 0.2	0.517
318.15 K, 101.33 kPa, x2 = 0.402	0.5
318.15 K, 101.33 kPa, x2 = 0.6	0.484
318.15 K, 101.33 kPa, x2 = 0.8	0.471
318.15 K, 101.33 kPa, x2 = 0.899	0.464
322.55 K, 101.33 kPa, x2 = 0.719	0.464
322.85 K, 101.33 kPa, x2 = 0.83	0.4607
322.95 K, 101.33 kPa, x2 = 0.202	0.4648
323.05 K, 101.33 kPa, x2 = 0.62	0.4581
323.15 K, 100 kPa, x2 = 0.25	0.431
323.15 K, 100 kPa, x2 = 0.5	0.427
323.15 K, 100 kPa, x2 = 0.75	0.424
323.15 K, 101.33 kPa, x1 = 0.1688	0.411
323.15 K, 101.33 kPa, x1 = 0.4383	0.416
323.15 K, 101.33 kPa, x1 = 0.5149	0.42
323.15 K, 101.33 kPa, x1 = 0.6583	0.423
323.15 K, 101.33 kPa, x1 = 0.7819	0.424
